{"source": "ChEMBL document CHEMBL5096216", "about": "“Rational Design, Synthesis, and Biological Evaluation of Novel S1PR2 Antagonists for Reversing 5-FU-Resistance in Colorectal Cancer” (J Med Chem, 2022)", "key": {"[1]": {"experiment": "Toxicity in nude mouse xenografted with human SW620/5-FU cells assessed as morphological changes in kidney at 1 to 10 mg/kg/day, iv by hematoxylin-eosin staining based analysis", "type": "organism-based", "details": "in vivo, dose 1-10 mg/kg/day"}, "[2]": {"molecular_target": "Sphingosine 1-phosphate receptor 5 (Homo sapiens, UniProt Q9H228)", "sequence (Q9H228 whole entry)": "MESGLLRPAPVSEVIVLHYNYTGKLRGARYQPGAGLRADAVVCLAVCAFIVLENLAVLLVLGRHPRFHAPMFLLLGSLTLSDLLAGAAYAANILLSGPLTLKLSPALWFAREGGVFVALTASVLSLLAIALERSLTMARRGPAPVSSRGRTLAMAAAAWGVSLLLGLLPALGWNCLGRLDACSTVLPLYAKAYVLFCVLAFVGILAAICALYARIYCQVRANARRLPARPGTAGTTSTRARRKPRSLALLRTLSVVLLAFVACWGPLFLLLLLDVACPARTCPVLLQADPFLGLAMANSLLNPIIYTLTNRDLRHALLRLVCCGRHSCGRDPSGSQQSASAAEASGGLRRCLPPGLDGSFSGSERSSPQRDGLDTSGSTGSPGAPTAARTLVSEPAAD", "experiment": "Binding affinity to S1PR5 (unknown origin) assessed as dissociation constant by surface plasmon resonance analysis"}, "HT-29 [3]": {"system": "HT-29", "experiment": "cells", "details": "Homo sapiens, HT-29, 48 h", "description": "Reversal of 5-FU resistance in human HT-29 cells assessed as reduction in 5-Fluorouracil IC50 at 2 uM incubated for 48 hrs (Rvb = 2768.36 +/- 89.25 %)"}, "SW620/5-FU [4]": {"system": "SW620/5-FU", "experiment": "Induction of apoptosis in human SW620/5-FU cells assessed as necrotic cells at 20 uM incubated for 24 hrs in presence of 5-FU by Annexin-V/PI staining based flow cytometry assay (reference value: 0%)", "type": "functional"}, "SW620/5-FU [5]": {"system": "SW620/5-FU", "experiment": "Antitumor activity against human SW620/5-FU cells xenografted in nude mouse assessed as tumor wight at 5 mg/kg/day, iv in presence of 5-FU (reference value: 1.3 +/-0.6 g)", "type": "functional"}, "[6]": {"experiment": "Toxicity in nude mouse xenografted with human SW620/5-FU cells assessed as morphological changes in spleen at 1 to 10 mg/kg/day, iv by hematoxylin-eosin staining based analysis", "type": "organism-based", "details": "in vivo, dose 1-10 mg/kg/day"}, "NCM460": {"system": "NCM460", "experiment": "Cytotoxicity against human NCM460 cells assessed as reduction in cell viability incubated for 48 hrs in presence of 5-FU by MTT assay", "type": "functional, cell-based", "details": "NCM460, 48 h"}, "SW620/5-FU [7]": {"system": "SW620/5-FU", "experiment": "Antitumor activity against human SW620/5-FU cells xenografted in nude mouse assessed as tumor volume at 1 mg/kg/day, iv measured on day 1 in presence of 5-FU (reference value: 105 +/- 14 mm3)", "type": "functional", "details": "time 1 day"}, "SW620/5-FU [8]": {"system": "SW620/5-FU", "experiment": "Induction of apoptosis in human SW620/5-FU cells assessed as early apoptotic cells at 10 uM incubated for 24 hrs by Annexin-V/PI staining based flow cytometry assay (reference value: 2.73%)", "type": "functional"}, "HCT-116 [9]": {"system": "HCT-116", "experiment": "Reversal of 5-FU resistance in human HCT-116 cells overexpressing DPD assessed as fold reduction in 5-Fluorouracil IC50 at 2 uM incubated for 48 hrs", "type": "functional"}, "SW620/5-FU [10]": {"system": "SW620/5-FU", "experiment": "Induction of apoptosis in human SW620/5-FU cells at 20 to 40 uM in presence of 5-FU by Hochest33342 staining based assay", "type": "functional, cell-based", "details": "dose 20-40 µM"}, "Mus musculus [11]": {"system": "Mus musculus", "experiment": "In vivo inhibition of tumor DPD expression in human SW620/5-FU cells xenografted in nude mouse at 1 to 10 mg/kg/day by immunohistochemistry analysis", "type": "functional, organism-based", "details": "dose 1-10 mg/kg/day"}, "HCT-116 [12]": {"system": "HCT-116", "experiment": "cells", "details": "Homo sapiens, HCT-116, 48 h", "description": "Reversal of 5-FU resistance in human HCT-116 cells overexpressing DPD assessed as reduction in 5-Fluorouracil IC50 at 2 uM incubated for 48 hrs (Rvb = 1836.66 +/- 87.95 %)"}, "SW620/5-FU [13]": {"system": "SW620/5-FU", "experiment": "Induction of apoptosis in human SW620/5-FU cells assessed as late apoptotic cells at 10 uM incubated for 24 hrs by Annexin-V/PI staining based flow cytometry assay (reference value: 2.97%)", "type": "functional"}, "SW620/5-FU [14]": {"system": "SW620/5-FU", "experiment": "Induction of apoptosis in human SW620/5-FU cells assessed as late apoptotic cells at 20 uM incubated for 24 hrs by Annexin-V/PI staining based flow cytometry assay (reference value: 2.97%)", "type": "functional"}, "[15]": {"experiment": "Toxicity in nude mouse xenografted with human SW620/5-FU cells assessed as morphological changes in liver at 1 to 10 mg/kg/day, iv by hematoxylin-eosin staining based analysis", "type": "organism-based", "details": "in vivo, dose 1-10 mg/kg/day"}, "SW620/5-FU [16]": {"system": "SW620/5-FU", "experiment": "Induction of apoptosis in human SW620/5-FU cells assessed as early apoptotic cells at 20 uM incubated for 24 hrs in presence of 5-FU by Annexin-V/PI staining based flow cytometry assay (reference value: 2.73%)", "type": "functional"}, "Mus musculus [17]": {"system": "Mus musculus", "experiment": "In vivo inhibition of tumor DPD expression in human SW620/5-FU cells xenografted in nude mouse at 1 to 10 mg/kg/day by Western blot analysis", "type": "functional, organism-based", "details": "dose 1-10 mg/kg/day"}, "HT-29 [18]": {"system": "HT-29", "experiment": "cells", "details": "Homo sapiens, HT-29, 48 h", "remark": "listed apart in the source", "description": "Reversal of 5-FU resistance in human HT-29 cells assessed as reduction in 5-Fluorouracil IC50 at 5 uM incubated for 48 hrs (Rvb = 2768.36 +/- 89.25 %)"}, "SW620/5-FU [19]": {"system": "SW620/5-FU", "experiment": "Antitumor activity against human SW620/5-FU cells xenografted in nude mouse assessed as tumor volume at 5 mg/kg/day, iv measured on day 15 in presence of 5-FU (reference value: 1991 +/- 469 mm3)", "type": "functional", "details": "time 15 day"}, "SW620/5-FU [20]": {"system": "SW620/5-FU", "experiment": "cells", "details": "Homo sapiens, 48 h"}, "SW620/5-FU [21]": {"system": "SW620/5-FU", "experiment": "cells", "details": "Homo sapiens, 48 h", "remark": "listed apart in the source"}, "SW620/5-FU [22]": {"system": "SW620/5-FU", "experiment": "Induction of apoptosis in human SW620/5-FU cells assessed as viable cells at 10 uM incubated for 24 hrs in presence of 5-FU by Annexin-V/PI staining based flow cytometry assay (reference value: 94.3%)", "type": "functional", "details": "read-out: Activity"}, "HT-29 [23]": {"system": "HT-29", "experiment": "Reversal of 5-FU resistance in human HT-29 cells assessed as reduction in cell viability incubated for 48 hrs in presence of 5-FU by MTT assay", "type": "functional, cell-based", "details": "HT-29, 48 h"}, "SW620/5-FU [24]": {"system": "SW620/5-FU", "experiment": "Reversal of 5-FU resistance in human SW620/5-FU cells assessed as reduction in cell viability incubated for 48 hrs in presence of 5-FU by MTT assay", "type": "functional, cell-based"}, "SW620/5-FU [25]": {"system": "SW620/5-FU", "experiment": "Antitumor activity against human SW620/5-FU cells xenografted in nude mouse assessed as tumor volume at 10 mg/kg/day, iv measured on day 15 in presence of 5-FU (reference value: 1991 +/- 469 mm3)", "type": "functional", "details": "time 15 day"}, "[26]": {"molecular_target": "T1, Sphingosine 1-phosphate receptor 2 (Homo sapiens, UniProt O95136)", "T1 sequence (O95136 whole entry)": "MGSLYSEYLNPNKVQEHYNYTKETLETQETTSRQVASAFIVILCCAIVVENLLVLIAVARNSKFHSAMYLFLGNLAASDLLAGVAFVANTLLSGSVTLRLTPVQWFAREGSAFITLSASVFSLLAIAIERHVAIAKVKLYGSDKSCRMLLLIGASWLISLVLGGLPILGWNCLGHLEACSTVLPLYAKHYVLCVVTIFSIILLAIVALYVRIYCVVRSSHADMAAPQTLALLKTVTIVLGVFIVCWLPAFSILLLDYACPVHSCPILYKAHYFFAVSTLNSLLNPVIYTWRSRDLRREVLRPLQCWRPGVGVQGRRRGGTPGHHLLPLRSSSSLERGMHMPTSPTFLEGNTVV", "experiment": "Inhibition of FBAL stimulated S1PR2 in human SW620/5-FU cells incubated for 72 hrs by Western blot analysis", "type": "cell-based", "details": "dose 5-15 µM, DDE = dose-dependent effect"}, "SW620/5-FU [27]": {"system": "SW620/5-FU", "experiment": "Induction of apoptosis in human SW620/5-FU cells assessed as late apoptotic cells at 10 uM incubated for 24 hrs in presence of 5-FU by Annexin-V/PI staining based flow cytometry assay (reference value: 2.97%)", "type": "functional"}, "[28]": {"molecular_target": "T1, Sphingosine 1-phosphate receptor 2", "experiment": "Binding affinity to S1PR2 (unknown origin) assessed as dissociation constant by surface plasmon resonance analysis"}, "HT-29 [29]": {"system": "HT-29", "experiment": "Upregulation of H3K27me3 expression in 5-FU resistant human HT-29 cells incubated for 12 hrs by Western blot analysis", "type": "functional, cell-based", "details": "dose 2.5-20 µM, DDE = dose-dependent effect"}, "[30]": {"experiment": "Metabolic stability in human plasma assessed as half life at 1 mg/ml incubated for 48 hrs by HPLC analysis", "type": "ADME, cell-free"}, "SW620/5-FU [31]": {"system": "SW620/5-FU", "experiment": "Antitumor activity against human SW620/5-FU cells xenografted in nude mouse assessed as tumor volume at 1 mg/kg/day, iv measured on day 15 in presence of 5-FU (reference value: 1991 +/- 469 mm3)", "type": "functional", "details": "time 15 day"}, "SW620/5-FU [32]": {"system": "SW620/5-FU", "experiment": "Reversal of 5-FU resistance in human SW620/5-FU cells assessed as fold reduction in 5-Fluorouracil IC50 at 5 uM incubated for 48 hrs", "type": "functional"}, "SW620/5-FU [33]": {"system": "SW620/5-FU", "experiment": "Antitumor activity against human SW620/5-FU cells xenografted in nude mouse assessed as tumor growth inhibition at 1 mg/kg/day, iv in presence of 5-FU", "type": "functional", "details": "read-out: TGI"}, "[34]": {"experiment": "Induction of intracellular 5-FU accumulation in human SW620/5-FU cells measured after 6 hrs by HPLC analysis (reference value: 4.3 microg/ml)", "type": "functional"}}, "note": "Activity calls are given as the source filed them. The rule behind the calls is not given here."}
{"smiles": "CCC(CC)CN1CCN(C(=O)Nc2cc(Oc3ccc(F)cc3)cc(Oc3ccc(C(=O)NC)cc3)c2)CC1", "values": [{"measurement": "Activity", "setting": "[1]", "result": "Non-Toxic"}, {"measurement": "Kd", "setting": "[2]", "result": "> 0.1", "unit": "µM"}, {"measurement": "IC50", "setting": "HT-29 [3]", "result": 42.1, "unit": "µM"}, {"measurement": "Activity", "setting": "SW620/5-FU [4]", "result": 0.076, "unit": "%"}, {"measurement": "Activity", "setting": "SW620/5-FU [5]", "result": 0.5, "unit": "g"}, {"measurement": "Activity", "setting": "[6]", "result": "Non-Toxic"}, {"measurement": "IC50", "setting": "NCM460", "result": "> 100", "unit": "µM"}, {"measurement": "Activity", "setting": "SW620/5-FU [7]", "result": 104, "unit": "mm3"}, {"measurement": "Activity", "setting": "SW620/5-FU [8]", "result": 3.41, "unit": "%"}, {"measurement": "fold change (FC)", "setting": "HCT-116 [9]", "result": 33}, {"measurement": "Activity", "setting": "SW620/5-FU [10]", "result": "Active"}, {"measurement": "inhibition", "setting": "Mus musculus [11]", "result": "Active"}, {"measurement": "IC50", "setting": "HCT-116 [12]", "result": 56.4, "unit": "µM"}, {"measurement": "Activity", "setting": "SW620/5-FU [13]", "result": 2.76, "unit": "%"}, {"measurement": "Activity", "setting": "SW620/5-FU [14]", "result": 4.01, "unit": "%"}, {"measurement": "Activity", "setting": "[15]", "result": "Non-Toxic"}, {"measurement": "Activity", "setting": "SW620/5-FU [16]", "result": 28.6, "unit": "%"}, {"measurement": "inhibition", "setting": "Mus musculus [17]", "result": "Active"}, {"measurement": "IC50", "setting": "HT-29 [18]", "result": 21.8, "unit": "µM"}, {"measurement": "Activity", "setting": "SW620/5-FU [19]", "result": 662, "unit": "mm3"}, {"measurement": "IC50", "setting": "SW620/5-FU [20]", "result": 17.6, "unit": "µM"}, {"measurement": "IC50", "setting": "SW620/5-FU [21]", "result": 36.8, "unit": "µM"}, {"measurement": "viability at 10 µM", "setting": "SW620/5-FU [22]", "result": 87.7, "unit": "%"}, {"measurement": "IC50", "setting": "HT-29 [23]", "result": 2.51, "unit": "µM"}, {"measurement": "IC50", "setting": "SW620/5-FU [24]", "result": 1.99, "unit": "µM"}, {"measurement": "Activity", "setting": "SW620/5-FU [25]", "result": 521, "unit": "mm3"}, {"measurement": "inhibition", "setting": "[26]", "result": "Dde"}, {"measurement": "Activity", "setting": "SW620/5-FU [27]", "result": 7.76, "unit": "%"}, {"measurement": "Kd", "setting": "[28]", "result": 0.00073, "unit": "µM"}, {"measurement": "Activity", "setting": "HT-29 [29]", "result": "Dde"}, {"measurement": "half-life at 1 mg/ml", "setting": "[30]", "result": "> 48", "unit": "h"}, {"measurement": "Activity", "setting": "SW620/5-FU [31]", "result": 1006, "unit": "mm3"}, {"measurement": "fold change (FC)", "setting": "SW620/5-FU [32]", "result": 88}, {"measurement": "inhibition in vivo at 1 mg/kg/day", "setting": "SW620/5-FU [33]", "result": 49.5, "unit": "%"}, {"measurement": "Activity", "setting": "[34]", "result": 12.2, "unit": "µg/mL"}]}
